This is an account of results in PubChem BioAssay (NCI).

Holding throughout (experiment): inhibition of tumour cell growth, NCI panel, 48 h
For assay [1], the system named is A549 NSCLC.
Assay [2] concerns ACHN renal.
Assay [3] concerns BT-549 breast.
Assay [4] has as its system DU-145 prostate.
The test system of assay [5] is K-562 leukemia.
Assay [6] has as its system MCF7 breast.
The subject of assay [7] is NCI-H23 lung.
In assay [8] the test system is NCI/ADR-RES ovarian.
Assay [9] relates to SK-OV-3 ovarian.
For assay [10], the system named is SR leukemia.

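Method: 48-hour compound exposure of cells in 96-well plates, five concentrations, linear interpolation of endpoints. At the GI50, growth is halved. TGI: total growth inhibition.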

On to `Cc1cnc(Nc2ccc(N3CCN(C)CC3)cc2)nc1Nc1ccc(Cl)c(NS(=O)(=O)C(C)(C)C)c1`, for which the GI50 was 339 nM in [1]; 90.2 nM in assay [2]; 872 nM in [3]; 303 nM in assay [4]; 245 nM in assay [5]; 79.5 nM in assay [6]. The GI50 is 379 nM in [7], 511 nM in [8], 97.2 nM in assay [9] and 92 nM in assay [10]. Further, the TGI came out at 1810 nM in assay [1]; 2200 nM in assay [2]; 2590 nM in assay [3]; 11000 nM in assay [4]; 7740 nM in assay [5]; 2490 nM in [6]. The TGI in [7] turned out to be 6550 nM; in assay [8] it was 6090 nM; in assay [9], 808 nM; in [10], 6260 nM.
For `COc1cc(/C=C/c2cc(/C=C/c3ccc(O)c(OC)c3)n(C(=O)Nc3ccc(Cl)cc3)n2)ccc1O`, the GI50 in assay [1] was 653 nM; in [2], 520 nM; in [3], 885 nM; in [4] it was 382 nM; in [5] it was 306 nM; in [6], 486 nM. The GI50 in assay [7] was 494 nM; in assay [8] it was 363 nM; in [9], 426 nM; in assay [10], 106 nM. Moreover, the TGI in assay [1] came out at 10300 nM; in assay [2] it was 11400 nM; in assay [3] it was 3510 nM; in assay [4], 1670 nM; in assay [5] it was 1340 nM; in assay [6], 3390 nM. The figures for the TGI in assay [7], in [8] and in [9] were 2360 nM, 3680 nM and 1800 nM, respectively.
On to `CN(C)c1ccc(C(c2ccc(Cl)cc2)c2ccc(N(C)C)cc2)cc1`, for which the TGI in assay [1], in assay [2], in assay [3], in [4], in [5] and in assay [6] was over 100000 nM each time. Besides, the TGI in assay [7], in assay [8], in assay [9] and in assay [10] was over 100000 nM throughout.
For `COc1cccc(C2C3=C(COC3=O)N(CCO)c3cc4c(cc32)OCO4)c1` (stereo not given), the GI50 is 631 nM in assay [1]; 3920 nM in assay [2]; 450 nM in [3]; 388 nM in assay [4]; 155 nM in assay [5]; 185 nM in assay [6]. In addition, the GI50 in assay [7] is 589 nM; in assay [8], 341 nM; in [9], 289 nM; in [10], 79.5 nM. The TGI in [1] is over 50000 nM; in assay [2] it was over 50000 nM; in [3], over 45100 nM; in assay [5], over 18700 nM; in assay [6] it was over 50000 nM; in [7], over 14200 nM. The results for the TGI in [8], in [9] and in assay [10] were 2720 nM, over 13800 nM and 227 nM, respectively.
Consider `C[C@]12CCNC(=O)C=C1CC[C@@H]1C2CC[C@@]2(C)C1CC[C@@H]2OC(=O)COc1ccc(N(CCCl)CCCl)cc1` (stereo not given in full), for which the TGI in assay [1] was 23000 nM; in assay [2], 11200 nM; in [3], 60200 nM; in [4] it was 22000 nM; in assay [5] it was 46300 nM; in assay [6] it was 14800 nM. Also, the TGI was found to be 20200 nM in [7], 21700 nM in [9] and 15700 nM in assay [10].
Consider `CC1=C(C)C2(O)C(=C(C)C1=O)/C(=C(/O)c1ccccc1)c1nc3ccccc3n12` (stereo not given), for which the GI50 in assay [1] was 19300 nM; in assay [2], 16400 nM; in [3] it was 22600 nM; in assay [4] it was 26800 nM; in assay [5] it was 24500 nM; in [7], 15000 nM. Moreover, the GI50 in assay [9] is 18200 nM; in assay [10] it was 10900 nM. The TGI turned out to be 44400 nM in [1]; 34400 nM in assay [2]; 54800 nM in assay [3]; 68600 nM in assay [4]; 52000 nM in assay [5]; 29900 nM in [7]. In addition, the TGI in [9] was 42200 nM; in assay [10], 37600 nM.
For `c1ccc([As]=[As]c2ccccc2)cc1` (stereo not given), the GI50 is 1870 nM in assay [1]; 1280 nM in assay [2]; 1230 nM in assay [3]; 1660 nM in assay [4]; 311 nM in assay [5]; 251 nM in assay [6]. For the same molecule, the GI50 in assay [8] was 2160 nM; in [9] it was 1820 nM; in [10], 302 nM. Further, the TGI was found to be 3900 nM in [1]; 2650 nM in assay [2]; 2870 nM in assay [3]; 3320 nM in [4]; 2100 nM in assay [5]; 1070 nM in [6]. The TGI is 6320 nM in assay [8], 3480 nM in assay [9] and 1950 nM in assay [10].
`O=C(/C=C/C12c3ccccc3C(c3ccccc31)C1C(=O)NC(=O)C12)c1ccc(Cl)cc1` (stereo not given): the GI50 in assay [1] is 2400 nM; in [2] it was 1650 nM; in assay [3] it was 1340 nM; in assay [4], 1670 nM; in assay [5], 1990 nM; in [6], 1340 nM. For the same molecule, the GI50 in assay [7] is 1780 nM; in assay [8] it was 1770 nM; in [9], 1850 nM; in [10] it was 2150 nM. Further, the TGI in assay [1] is 10100 nM; in assay [2] it was 3020 nM; in assay [3], 2690 nM; in assay [4] it was 3260 nM; in assay [5], over 100000 nM; in assay [6], 4050 nM. The TGI was 3830 nM in [7], 4930 nM in assay [8], 3870 nM in [9] and over 100000 nM in assay [10].
Turning to `CN1CCN(Cc2ccc3c(NNC(=O)c4ccccc4)nc4cc(F)ccc4n23)CC1`, the GI50 in assay [1] was 473 nM; in assay [2] it was 84.8 nM; in [3], 870 nM; in [4], 663 nM; in [5] it was 376 nM; in assay [6], 359 nM. Besides, the GI50 in assay [7] was 989 nM; in [8], 220 nM; in assay [9], 371 nM; in [10], 282 nM. Moreover, the TGI was 21800 nM in assay [1]; 11600 nM in assay [2]; 57900 nM in assay [3]; over 100000 nM in assay [4]; 21000 nM in [5]; 11800 nM in [6]. In addition, the TGI was 29600 nM in assay [7], over 100000 nM in [9] and 15700 nM in [10].
